US11072596B2, “Poly(ADP-ribose) polymerase inhibitor, preparation method and use” (SELECTION BIOSCIENCE LLC, priority 2017, dated 2021)

Experiments:
CYP2D6 = target: T1, CYP2D6 (Homo sapiens, UniProt P10635); experiment: Inhibition of human liver microsomal CYP450 enzymes, CYP2D6; assay type: in vitro ADME; settings: human liver microsomes, substrate Bufuralol 10 μM; Reference = quinidine; read-out: IC50 2D6
T1 construct: from tissue; host or cells: human liver microsomes (HLM)
Description: (§1) The inhibitory effects of the compound of the present disclosure on the CYP450 enzymes of six human subtypes were determined by the following experimental method:
(§2) Reference compounds of each subtype: CYP1A2: α-naphthoflavone; CYP2C9: sulfaphenazole; CYP2C19: omeprazole; CYP3A4: ketoconazole; CYP2D6: quinidine.
(§3) Substrate concentration: CYP1A2: Phenacetin at 30 μM; CYP2C9: Diclofenac at 10 μM; CYP2C19: S-Mephenytoin at 35 μM; CYP3A4: Midazolam at 5 μM and Testosterone at 80 μM; CYP2D6: Bufuralol at 10 μM.
(§4) 6. 0.2 mg/mL of HLM was added to the test wells, 400 μL per well, and then the gradient diluted 400× test compound was added to the corresponding wells.
(§5) 7. 0.2 mg/mL of HLM was added to the test wells, 200 μL per well, and then the gradient-diluted reference inhibitor was added to the corresponding wells. Steps 6 and 7 needed to be performed on ice.
(§6) 8.1. 30 μL of test compound and reference compound were mixed in 0.2 mg/mL of HLM solution (see steps 6 and 7).
(§7) 8.2. 15 μL of 4× substrate solution (see step 4) was added.
(§8) 10. Preheated 8 mM of NADPH solution was added to the 96-well test plate (see step 3) to initiate the reaction, 15 μL per well.
(§9) 11. The test plate was incubated at 37° C.: 3A4 for 5 minutes, each of 1A2, 2C9 and 2D6 for 10 minutes, and 2C19 for 45 minutes.
(§10) 12. ACN containing internal reference was added to stop the reaction, 120 μL per well.
14. […]

[1] = Liver microsomal stability in vitro, rat; assay type: in vitro ADME; settings: pH 7.4; rat liver microsomes 0.5 mg protein/mL, 1 μM test compound, 37° C.; read-out: Rat T1/2
Description: Evaluation of in vitro liver microsomal stability of the compound of the present disclosure was tested by the following method:
Buffer: 100 mM potassium phosphate buffer, pH 7.4; […] MgCl2.
Liver microsomes: human liver microsomes, Corning Cat No. 452117; Rat liver microsomes, Xenotech Cat No. R1000; Mouse liver microsomes, Xenotech Cat No. M1000; Dog liver microsomes, Xenotech Cat No. D1000; Liver microsomes of cynomolgus monkey, Corning Cat No. 452413, the final concentration was 0.5 mg protein/mL.
1. Intermediate solution: 5 μL of compound or control in stock solution (10 mM) was diluted with 495 μL of methanol (concentration: 100 μM, 99% MeOH).
2. Operating solution: the intermediate solution was diluted […] with 450 μL 100 mM potassium phosphate buffer (concentration: 10 μM, 9.9% MeOH).
1. 10 μL of compound or control solution per well was added to all plates (T0, T5, T10, T20, T30, T60, NCF60) except matrix blank.
2. Microsome solution was distributed to 96-well plates according to platemap for standby, 680 μL per well, and the mixture of microsome solution and the compound was incubated at 37° C. for about 10 minutes.
4. […]
10. Data analysis: The peak area of the corresponding compound and internal standard was detected by LC-MS/MS, and the T1/2 of the compound was calculated by the following formula: […]

MDA-MB-436 cells = experiment: Pharmacodynamic study on mouse MDA-MB-436 model; assay type: in vivo, BALB/c nude mice; settings: for T/C / TGI / Tumor volume (day 39) / Tumor volume (day 0): MDA-MB-436 in nude mice; for T/C / TGI / Tumor volume (day 39) / rate of test animals in which the tumor completely disappeared: 50 mg/kg PO x 18 days; for T/C / TGI / Tumor volume (day 39): day 39; for Tumor volume (day 0): day 0, before dosing; for rate of test animals in which the tumor completely disappeared: observed until the 39th day; for inhibitory effect on the tumor growth, in words: 50 mg/kg, continuous PO administration for 18 days
Description: BALB/c nude mice, aged 6-8 weeks old, weighing 18-22 g, female, provided by Shanghai Lab Animal Research Center (Shanghai Xipuer-Beikai) with the animal certificate no: 20130016001914.
Human breast cancer MDA-MB-436 cells (ATCC, Manacas, Va., Article number (Art. No.): ATCC-HTB-130) were cultured in vitro in monolayer under the conditions of RPMI1640 medium with 10% fetal bovine serum and 37° C. 5% CO2 incubator. The passage was routinely digested with trypsin-EDTA twice a week. When the cell saturation was up to 80%-90% and reached the requirement, the cells were collected, counted and inoculated. 0.2 mL (1×10^7) MDA-MB-436 cells (added with matrix gel, volume ratio 1:1) were subcutaneously inoculated into the right back of each mouse, and mice were randomly grouped and dosed when the average tumor volume reached 157 mm^3.
2.5 g of methylcellulose was slowly added into 80 mL of deionized water in a suitable container under stirring, stirred until uniform, 10 mL of Tween 80 was added to the solution, stirred until uniform, continued to add deionized water to 500 mL, and stirred until uniform to obtain a vehicle solution. Then an appropriate amount of p-toluenesulfonate of example 23 was weighed, and an appropriate amount of the above vehicle solution was added and vortexed until uniform.
The subcutaneous tumor volumes of nude mice were measured 2-3 times a week, and the mice were weighed, and the data were recorded.
Experimental evaluation index: tumor growth inhibition rate TGI (%) or relative tumor proliferation rate T/C (%) was used for evaluation, wherein T was the experimental group, and C was the control group.
Calculation of relative tumor proliferation rate: If T>T0, T/C (%)=(T−T0)/(C−C0)×100%, if T<T0, T/C (%)=(T−T0)/T0×100%, wherein T and C were tumor volumes at the end of the experiment; T0 and C0 were tumor volumes at the beginning of the experiment.

CYP2C9 = target: T2, CYP2C9 (Homo sapiens, UniProt P11712); experiment: Inhibition of human liver microsomal CYP450 enzymes, CYP2C9; assay type: in vitro ADME; settings: human liver microsomes, substrate Diclofenac 10 μM; Reference = sulfaphenazole; read-out: IC50 2C9
T2 construct: from tissue; host or cells: human liver microsomes (HLM)
T2 sequence (P11712 whole entry): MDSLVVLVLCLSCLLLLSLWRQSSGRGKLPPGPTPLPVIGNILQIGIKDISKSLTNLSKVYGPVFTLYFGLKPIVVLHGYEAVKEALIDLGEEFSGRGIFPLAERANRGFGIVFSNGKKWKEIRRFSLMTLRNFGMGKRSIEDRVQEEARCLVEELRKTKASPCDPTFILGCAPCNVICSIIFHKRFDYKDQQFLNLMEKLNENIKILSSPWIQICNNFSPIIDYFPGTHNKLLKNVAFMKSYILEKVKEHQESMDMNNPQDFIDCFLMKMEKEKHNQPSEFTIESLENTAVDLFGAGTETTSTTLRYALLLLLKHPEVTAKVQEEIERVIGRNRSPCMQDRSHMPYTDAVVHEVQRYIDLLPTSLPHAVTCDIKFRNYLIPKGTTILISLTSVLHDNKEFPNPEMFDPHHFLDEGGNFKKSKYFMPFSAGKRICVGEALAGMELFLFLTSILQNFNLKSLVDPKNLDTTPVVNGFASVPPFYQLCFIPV
Description: as §1, §2, §3, §4, §5, §6, §7, §8, §9, §10
14. […]

T1 sequence (P10635 whole entry): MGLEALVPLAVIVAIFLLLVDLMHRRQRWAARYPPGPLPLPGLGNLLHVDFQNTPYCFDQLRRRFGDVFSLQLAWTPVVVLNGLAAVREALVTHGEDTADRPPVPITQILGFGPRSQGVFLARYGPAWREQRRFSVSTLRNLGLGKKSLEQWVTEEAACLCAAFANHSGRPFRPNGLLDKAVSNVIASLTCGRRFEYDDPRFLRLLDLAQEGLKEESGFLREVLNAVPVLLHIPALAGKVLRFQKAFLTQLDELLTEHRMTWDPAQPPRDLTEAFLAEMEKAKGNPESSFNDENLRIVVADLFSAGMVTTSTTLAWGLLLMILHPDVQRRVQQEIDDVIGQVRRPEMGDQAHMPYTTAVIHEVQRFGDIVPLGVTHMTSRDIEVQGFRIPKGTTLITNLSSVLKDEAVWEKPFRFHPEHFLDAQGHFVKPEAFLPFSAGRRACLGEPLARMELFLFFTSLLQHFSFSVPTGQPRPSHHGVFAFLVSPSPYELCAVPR

| SMILES | IC50 (CYP2D6) | half-life at 1 μM [1] | T/C (MDA-MB-436 cells) | TGI (MDA-MB-436 cells) | Tumor volume (day 39) (MDA-MB-436 cells) | Tumor volume (day 0) (MDA-MB-436 cells) | anti-tumor activity compared with positive control Niraparib, in words (MDA-MB-436 cells; nude mouse MDA-MB-436 model, 50 mg/kg PO for 18 days) | rate of test animals in which the tumor completely disappeared (MDA-MB-436 cells; nude mouse MDA-MB-436 model) | inhibitory effect on the tumor growth, in words (MDA-MB-436 cells; nude mouse MDA-MB-436 model) | IC50 (CYP2C9) |
| --- | --- | --- | --- | --- | --- | --- | --- | --- | --- | --- |
| NC(=O)c1cccc2cn(-c3ccc([C@]4(F)CCCNC4)cc3)nc12 (single isomer, unassigned) [Example 23, (R or S)-2-(4-(3-fluoropiperidin-3-yl)phenyl)-2H-indazole-7-carboxamide] | > 10 µM | 1.07 h | −68% | 168% | 49 mm^3 | 157 mm^3 | stronger | 50% | very strong inhibitory effect | > 10 µM |
| NC(=O)c1cccc2cn(-c3ccc([C@@H]4CCCNC4)cc3)nc12 [Niraparib, reference compound] | > 10 µM | 1.76 h | 1.5% | 98.5% | 187 mm^3 | 157 mm^3 | – | zero | very strong inhibitory effect | > 10 µM |
